Entries after “also recorded” stand apart in the source; their conditions may differ.
Tests used:
[1] = tested on: major depressive disorder (MDD); assay: Multicenter, randomized, double-blind, placebo-controlled study of LDX (Vyvanse) as augmentation to escitalopram: efficacy (MADRS, HAM-D17, QIDS-SR, CGI); type: in vivo, human; conditions: for HAM-D17 change in total score, LS mean change (90% CI): week 8 to 14
Experimental: In this investigational 14-week, double-blind, randomized, placebo-controlled study (n=246), Vyvanse or placebo was administered orally as an adjunctive therapy to adults between the ages of 18 and 55, who experienced residual depressive symptoms following treatment with 20 mg/day escitalopram/LEXAPRO® (prospective 8-week period). Residual depressive symptoms were defined as 17—Item Hamilton Rating Scale for Depression (HAM-D 17) score at the end of this prospective phase (n=177). In the double blind 6-week period, those with residual depressive symptoms were randomized to receive escitalopram plus either placebo or Vyvanse (dose range of 20 to 50 mg per day) on a 1:1 basis.
The primary study endpoint was the mean change in the total MADRS score in non-remitters after 6 weeks of blinded treatment. Non-remitters were defined as having a total Montgomery-Asberg Depression Rating Scale (MADRS) score>10 at randomization, following 8 weeks of escitalopram treatment (n=129). The key secondary outcome was the Sheehan Disability Scale (SDS). Both the MADRS and SDS are well-validated and widely used assessments in MDD research; the MADRS provides evidence of symptomatic improvement while the SDS reflects the functional impact of the symptomatic improvement. The significance level was prospectively set at 10%.
This was a multicenter, randomized, double-blind, parallel-group, placebo-controlled study in participants with major depressive disorder (MDD) conducted at 15 sites in the United States from July 2009 to August 2010. The study had 4 phases: screening and washout (if necessary), 8 weeks of open-label escitalopram oxalate, 6 weeks of double-blind LDX treatment as augmentation therapy to escitalopram, and a safety follow-up.
Eligible participants were adults (18-55 y) with a primary diagnosis of nonpsychotic MDD according to the Structured Clinical Interview for the Diagnostic and Statistical Manual of Mental Disorders, Fourth Edition—Text Revision™ disorders—Axis I (SCID-I) (American Psychiatric Association (Diagnostic and Statistical Manual of Mental Disorders, Fourth Edition Text Revision, Washington D.C., American Psychiatric Association, 2000). Diagnosis was confirmed using Module A of the Mini-International Psychiatric Interview (MINI). Participants not receiving antidepressants at screening were required to have a baseline Hamilton Rating Scale for Depression-17 items (HAM-D17) score 22; those receiving antidepressants at screening had to have a HAM-D17 score 0 and not to have achieved remission based on investigator opinion following at least 6 weeks of treatment. Women of childbearing age were required to be nonpregnant/nonlactating and on adequate contraception. Permitted concomitant therapies included hormonal therapy, thyroid medication, […], bronchodilator inhalers, nonsedating antihistamines, antibiotics, and over the counter medications not affecting blood pressure (BP), heart rate, or the central nervous system.
After screening/washout, participants underwent 8 weeks of open-label escitalopram monotherapy (10 mg/d at week 1; 20 mg/d thereafter). At week 8 (the augmentation baseline), those with a tolerable safety profile and residual MDD symptoms, defined as a HAM-D17 score were randomized 1:1 to receive LDX or placebo in a 6-week double-blind phase. Participants were stratified by baseline remission status (escitalopram remitters: Montgomery-Asberg Depression Rating Scale [MADRS] total score 10; escitalopram nonremitters: MADRS score >10) to enhance between-treatment balance. Treatment with LDX was initiated at 20 mg/d. The dose was increased weekly, first to 30 mg/d and then to 50 mg/d, during the dose-optimization period. Investigators could increase the dose through week 10 and decrease the dose (only once per participant) at any time; the LDX dose at week 11 was maintained through study endpoint (week 14/final study visit). […]

[2] = Same study, double-blind augmentation phase: safety (TEAEs, C-SSRS, vital signs, ECG, weight/BMI, laboratory); type: in vivo, human
Text: Adverse events (AEs) were collected during the study and coded using the Medical Dictionary for Regulatory Activities, Version 11.1. Treatment-emergent AEs (TEAEs) were defined as AEs that started or deteriorated on or after the date of the first dose of study drug during the double-blind treatment phase and no later than 3 days following the last dose of study drug. The incidence of TEAEs of special interest, including psychiatric (psychosis/mania, suicide, aggression, or other) and nonpsychiatric (weight, clinical laboratory [liver enzymes], vital signs, and sexual dysfunction) was also assessed. Vital signs (sitting SBP and DBP, pulse, and sitting respiratory rate), and Columbia-Suicide Severity Rating Scale (C-SSRS; Posner K, Brent D, Lucas C, et al.) a semistructured interview assessing the occurrence, severity, and frequency of suicide-related thoughts and behaviors) were measured at screening and all study visits. Laboratory assessments were conducted at screening, week 8, week 11, and study endpoint; physical examinations were conducted at screening, week 8, and study endpoint.
Safety analyses during double-blind treatment were performed on the randomized safety analysis set (all participants who took dose of randomized augmentation treatment and had safety assessment after treatment initiation). AEs, vital signs, weight and body mass index (BMI), electrocardiograms (ECG) findings, laboratory results, and C-SSRS results were descriptively summarized.

[3] = tested on: major depressive disorder (MDD); conditions: augmentation of standard antidepressant treatment; cited from earlier work
[4] = escitalopram nonremitters, study endpoint
[5] = Visit 13 (week 14) / study endpoint
[6] = adjunctive therapy with escitalopram
[7] = double-blind augmentation phase, n = 88

C[C@@H](Cc1ccccc1)NC(=O)[C@@H](N)CCCCN [LDX, N-[(1S)-1-methyl-2-phenylethyl]-L-lysinamide]
improvement compared to placebo on the mean total MADRS ([1]; 'per protocol' analysis of non-remitting subjects, after 6 weeks, adjunctive to escitalopram 20 mg/day): −2.2 | HAM-D17 50% decrease at week 14 ([1]; all randomized participants): 62 (70.5) n (%) | HAM-D17 total score ≦10 at week 14 ([1]; all randomized participants): 37 (42.0) n (%) | MADRS 50% decrease at week 14 ([1]; all randomized participants): 64 (72.7) n (%) | MADRS total score ≦10 at week 14 ([1]; all randomized participants): 52 (59.1) n (%) | QIDS-SR change in total score, LS mean change (90% CI) ([1]; all randomized participants (n = 85)): −2.5 (−3.1, −1.8) | HAM-D17 change in total score, LS mean change (90% CI) ([1]; all randomized participants): −3.9 (−5.0, −2.9) | MADRS change in total score, LS mean change (90% CI) ([1]; all randomized participants, week 8 to week 14): −4.8 (−6.3, −3.4) | MADRS items related to appetite, sleep, or thoughts of self-harm ([1]; analysis of MADRS items): no significant worsening | MADRS items showing improvement ([1]; analysis of MADRS items, all p≦0.08): improvement present in domains of mood, concentration, interest, and motivation | adjusted effect size of MADRS total scores for LDX vs placebo ([1]; at endpoint): −0.3 | HAM-D17 50% decrease at week 14 ([1]; escitalopram nonremitters): 41 (63.1) n (%) | HAM-D17 total score ≦10 at week 14 ([1]; escitalopram nonremitters): 21 (32.3) n (%) | MADRS 50% decrease at week 14 ([1]; escitalopram nonremitters): 43 (66.2) n (%) | MADRS total score ≦10 at week 14 ([1]; escitalopram nonremitters): 32 (49.2) n (%) | MDD symptoms vs placebo, clinician-assessed and patient self-reported measures ([1]; escitalopram nonremitters): improved MDD symptoms vs placebo | QIDS-SR change in total score, LS mean change (90% CI) ([1]; escitalopram nonremitters (n = 63)): −2.4 (−3.1, −1.6) | proportion achieving MADRS remission (total score ≦10) [1, 4]: 49.2% | proportion achieving a 25% decrease in MADRS total score [1, 4]: 89.2% | proportion of participants with a 50% decrease in MADRS total score [1, 4]: 66.2% | HAM-D17 change in total score, LS mean change (90% CI) ([1]; escitalopram nonremitters): −4.9 (−6.0, −3.9) | self-assessed MDD symptoms ([1]; escitalopram remitters): improved self-assessed MDD symptoms | primary or secondary efficacy outcome measures, LDX vs placebo ([1]; escitalopram remitters, augmentation baseline and study endpoint): no significant differences; also recorded: no treatment differences | all MADRS outcomes, LDX versus placebo ([1]; full analysis set (FAS)): numerically greater improvement | endpoint LS mean difference between Vyvanse and placebo, total MADRS ([1]; subjects with total MADRS score >10 and <50% improvement in total MADRS score, adjunctive to escitalopram): −3.9 | LS mean (90% CI) change in QIDS-SR total scores at week 14 ([1]; table footnote, printed as escitalopram nonremitters (P = .0852)): For escitalopram nonremitters, LS mean (90% CI) change in QIDS-SR total scores at week 14 were −1.9 (−2.9, −0.9) and −0.4 (−1.4, −0.5) for those taking LDX and placebo, respectively (P = .0852) | CGI-S: proportion of patients with a response ranging from no illness to mild illness ([1]; week 14): However, CGI-S scores at week 14 showed a numerically greater proporation of patients had a response ranging from no illness, to mild illness, with LDX (88.9%) vs placebo (61.3%) | adverse effects beyond those previously seen ([2]; LDX with escitalopram): No significant adverse effects were seen that went beyond those previously seen with escitalopram and LDX | increases in blood pressure and pulse rate ([2]; LDX with escitalopram): generally were small and consistent with product labeling | BMI, mean (SD) change from augmentation baseline ([2]; Visit 13 (week 14)): −0.4 (0.70) kg/m^2 | ECG HR, mean (SD) change from augmentation baseline ([2]; Visit 13 (week 14)): 4.8 (8.64) bpm | ECG QTcF, mean (SD) change from augmentation baseline ([2]; Visit 13 (week 14)): −4.9 (11.84) ms | Weight, mean (SD) change from augmentation baseline ([2]; Visit 13 (week 14)): −1.2 (2.00) kg | DBP, mean (SD) change from augmentation baseline [2, 5]: 0.9 (6.61) mmHg | Pulse, mean (SD) change from augmentation baseline [2, 5]: 3.3 (8.45) bpm | SBP, mean (SD) change from augmentation baseline [2, 5]: 2.3 (9.04) mmHg | ECG and clinical laboratory changes [2, 6]: No clinically significant mean changes | most commonly reported adverse events [2, 6]: dry mouth, headache, decreased appetite, and insomnia | ECG and clinical laboratory changes ([2]; adjunctive therapy with escitalopram, listed as VYVANSE): No notable ECG changes or changes in clinical laboratory assessments | TEAE: Decreased appetite [2, 7]: 6 (6.8) n (%) | TEAE: Dry mouth [2, 7]: 10 (11.4) n (%) | TEAE: Headache [2, 7]: 10 (11.4) n (%) | TEAE: Insomnia [2, 7]: 4 (4.5) n (%) | TEAE: Nasopharyngitis [2, 7]: 5 (5.7) n (%) | Any TEAE ([2]; double-blind augmentation phase, randomized safety analysis set (n = 88)): 53 (60.2) n (%) | abnormal hepatic enzymes (TEAE) ([2]; double-blind treatment): 1.1% | decreased weight (TEAE) ([2]; double-blind treatment): 2.3% | nonpsychiatric TEAEs of special interest ([2]; double-blind treatment): 9.1% | psychiatric TEAE categorized as psychosis/mania, suicidal, or aggression ([2]; double-blind treatment): no participant | psychiatric TEAE: abnormal dreams ([2]; double-blind treatment): 1.1% | psychiatric TEAE: anxiety ([2]; double-blind treatment): 3.4% | psychiatric TEAE: feeling jittery ([2]; double-blind treatment): 2.3% | psychiatric TEAE: irritability ([2]; double-blind treatment): 3.4% | psychiatric TEAE: somnolence, number of participants ([2]; double-blind treatment): 0 | psychiatric TEAEs of special interest ([2]; double-blind treatment): 18.2% | vital-sign related TEAEs ([2]; double-blind treatment): 5.7% | suicidal behavior ([2]; during augmentation treatment): No participants exhibited suicidal behavior | patients remaining in BMI category at study endpoint ([2]; normal (18.5 to <25.0) at augmentation baseline): 81.8% | patients remaining in BMI category at study endpoint ([2]; obese (30) at augmentation baseline): 82.5% | patients remaining in BMI category at study endpoint ([2]; overweight (25.0 to <30.0) at augmentation baseline): 76.9% | participants reporting at least 1 TEAE ([2]; randomized augmentation phase): 60.2% | participants reporting mild TEAEs ([2]; randomized augmentation phase): 18.2% | participants reporting moderate TEAEs ([2]; randomized augmentation phase): 30.7% | participants reporting severe TEAEs ([2]; randomized augmentation phase): 11.4% | study discontinuation due to TEAEs, number of participants ([2]; randomized augmentation phase): 2 | incidence of decreased appetite ([2]; randomized treatment): 6.8% | incidence of dry mouth ([2]; randomized treatment): 11.4% | incidence of headache ([2]; randomized treatment): 11.4% | incidence of insomnia ([2]; randomized treatment): 4.5% | incidence of nasopharyngitis ([2]; randomized treatment): 5.7% | C-SSRS affirmative response (wished dead / not wake up), number of participants ([2]; week 9): 1 | C-SSRS affirmative response (wished dead / not wake up), number of participants ([2]; week 10): 2 | C-SSRS affirmative response (wished dead / not wake up), number of participants ([2]; week 14): 1

O=C1CCc2ccc(OCCCCN3CCN(c4cccc(Cl)c4Cl)CC3)cc2N1 [aripiprazole]
effect size for MADRS total scores vs placebo [3]: 0.35

Source: patent publication US20130217615A1, “COMBINATION TREATMENT OF MAJOR DEPRESSIVE DISORDER” (SHIRE LLC, priority 2010, published 2013)
